Assay results published in patent publication US20240024262A1, “USE OF VALERIC ACID IN PREPARATION OF DRUG FOR PREVENTING AND TREATING DIABETES” (Harbin Medical University, priority 2022, published 2024).

Assays:
[1] = test system: Leptin receptor gene deficient db/db mice; assay: Type 2 diabetes model db/db mice: food intake, body weight, blood glucose-related indexes; format: in vivo; conditions: comparison among groups / vs PBS control group
Method: The following drugs are taken as comparative examples: • 1. Comparative example where an existing drug serves as a positive control • (1) High-fat fed C57BL6/J mice • Sodium butyrate gavage intervention group: 75.0 mg/kg • (2) Type 2 diabetes model db/db mice • Sodium butyrate gavage intervention group: 75.0 mg/kg • Harmine gavage intervention group: 10.0 mg/kg • Metformin gavage intervention group: 100.0 mg/kg • (3) Cell line of mouse insulinoma islet β cells (Beta-TC-6) • Sodium butyrate intervention group: 1.0 mmol/L • Harmine intervention group: 10.0 μmmol/L • (4) Mouse islet β primary cell • Sodium butyrate intervention group: 1.0 mmol/L • Harmine intervention group: 10.0 μmmol/L • 2. A control test is taken as a comparative example • (1) High-fat fed C57BL6/J mice • Ordinary feed feeding group, and high-fat feed PBS gavage group • (2) Type 2 diabetes model db/db mice • Control feeding group and PBS gavage group • (3) Cell line of mouse insulinoma islet β cells (Beta-TC-6) • Blank control group, and palmitic acid (PA) intervention negative control group • (4) Mouse islet β primary cell • Blank control group, and PA intervention negative control group • Results are as follows:
(II) In the animal test, the therapeutic effect of the valeric acid on diabetes is observed by using Leptin receptor gene deficient db/db mice (purchased from Nanjing Junke Biotechnology Co., Ltd.) as test subjects.

[2] = test system: mouse primary islet β cells; assay: Insulin secretion ability test; format: cell-based; conditions: for secretion levels of the insulin stimulated under a high glucose environment: high sugar (20 mmol/L), after PA intervention
Text: (§1) Through an insulin secretion ability test, the levels of the insulin produced in each group under concentrations of no sugar, low sugar (2.8 mmol/L) and high sugar (20 mmol/L) are compared.

Beta-TC-6 cell line [3] = assay: Insulin secretion ability test; format: cell-based, mouse; conditions: for secretion levels of the insulin stimulated under a high glucose environment: high sugar (20 mmol/L), after PA intervention
Text: as §1

Beta-TC-6 cells [4] = assay: EdU-488 cell proliferation test; format: cell-based, mouse; conditions: PA alone, or SV 1 mmol/L after PA compared with PA group
Text: (§2) During the cell testing phase of this example, a cell line of mouse insulinoma islet β cells (Beta-TC-6) and mouse primary islet β cells were purchased from Wuhan Prosser Life Technology Co., Ltd for carrying out relevant experimental researches.
(§3) A cell Counting Kit 8 (CCK-8) is a convenient and reliable method to detect the cell activity. In this example, a BeyoClick™ EdU-488 kit is further used to detect the proliferation level of the cells. EdU (5-ethynyl-2′-deoxyuridine) is a thymidine analog that may replace T to infiltrate replicated DNA molecules in the process of cell proliferation. The replication activity of DNA was detected by specific reaction of EdU and an Apollo® Fluor 488 fluorescent dye, an EdU label was correctly detected, and then proliferation of cells was reflected. In this example, expression of Ki-67 in the cells was detected by immunofluorescence (immunocytochemistry), and apoptosis was analyzed by referring to a one-step TUNEL cell apoptosis detection kit (red fluorescence). Meanwhile, this example used a flow cytometry technology to complete detection of a cell cycle and apoptosis.
(§4) The following drugs are taken as comparative examples: • 1. […]

Beta-TC-6 cell line [5] = assay: TUNEL cell apoptosis detection test; format: cell-based, mouse; conditions: PA intervention, then SV intervention
Text: as §2, §3

[6] = test system: mouse primary islet β cells; assay: TUNEL cell apoptosis detection test; format: cell-based; conditions: PA intervention, then SV intervention
Text: as §2, §3

Beta-TC-6 cells [7] = assay: Flow cytometry apoptosis analysis; format: cell-based, mouse; conditions: Beta-TC-6, flow cytometry; PA intervention, then SV intervention
Text: as §3
Sodium valerate SV can weaken PA induced apoptosis to a certain extent (FIG. 17).

[8] = test system: mouse primary islet β cells; assay: EdU-488 cell proliferation test; format: cell-based; conditions: PA alone, or SV 1 mmol/L after PA compared with PA group
Text: as §2, §3, §4

| Compound | insulin secretion [1] | secretion levels of the insulin stimulated under a high glucose environment [2] | secretion levels of the insulin stimulated under a high glucose environment (Beta-TC-6 cell line [3]) | secretion ability of the insulin ([2]; PA intervention) | secretion ability of the insulin (Beta-TC-6 cell line [3]; PA intervention) | proportion of EdU (+) cells (Beta-TC-6 cells [4]) | proportion of apoptotic cells (TUNEL) (Beta-TC-6 cell line [5]) | proportion of apoptotic cells (TUNEL) [6] | proportion of apoptotic cells, Q2 quadrant (late apoptosis) and Q3 quadrant (early apoptosis) (Beta-TC-6 cells [7]) | proportion of EdU (+) cells [8] | secretion levels of the insulin stimulated under a high glucose environment ([2]; listed as SV) | secretion levels of the insulin stimulated under a high glucose environment (Beta-TC-6 cell line [3]; listed as SV) |
| --- | --- | --- | --- | --- | --- | --- | --- | --- | --- | --- | --- | --- |
| CN(C)C(=N)N=C(N)N [metformin, reference compound] | basically no difference |  |  |  |  |  |  |  |  |  |  |  |
| COc1ccc2c(c1)[nH]c1c(C)nccc12 [Harmine] |  | significantly increased | significantly increased |  |  |  |  |  |  |  |  |  |
| CCCCCCCCCCCCCCCC(=O)O [PA, palmitic acid, reference compound] |  |  |  | decreased significantly | decreased significantly | decreased significantly | increased significantly | increased significantly | increased significantly | decreased significantly |  |  |
| CCCCC(=O)[O-].[Na+] [sodium valerate] |  | more significant | more significant |  |  | increased significantly | slightly decreased | slightly decreased | decreased significantly | increased significantly | significantly increased | significantly increased |
| CCCC(=O)[O-].[Na+] [Sb, sodium butyrate] |  | significantly increased | significantly increased |  |  |  |  |  |  |  |  |  |
